The record followed here is ChEMBL document CHEMBL5233252, “Single and dual target inhibitors based on Bcl-2: Promising anti-tumor agents for cancer therapy” (Eur J Med Chem, 2020).

A short description of data set [1]: Inhibition of Bcl-2/Mcl-1 in human MCF7 cells. It counts as cell-based.
In data set [2] the target is T1, Apoptosis regulator Bcl-2 (Homo sapiens, UniProt P10415). Kind of data set: Inhibition of Bcl-2 (unknown origin) by ELISA analysis. A general note: ELISA stands for enzyme-linked immunosorbent assay.
Data set [3] deals with T2, Bcl-2-like protein 1 (Homo sapiens, UniProt Q07817). Kind of data set: Binding affinity to recombinant His-tagged human Bcl-xL expressed in Escherichia coli assessed as inhibition constant by SPR analysis. (In general: In SPR one partner is held on a chip, and binding of the other changes the refractive index at the surface.)
Data set [4] concerns the target T1, Apoptosis regulator Bcl-2. Nature of the data set: Binding affinity to Bcl-2 (unknown origin) by ELISA analysis.
In data set [5] the target is T1, Apoptosis regulator Bcl-2. Nature of the data set: Inhibition of Flu-BakBH3 binding to GST-tagged Bcl-2 (unknown origin) preincubated for 10 mins followed by Flu-BakBH3 addition and measured after 30 mins by competitive fluorescence polarization assay. (In general: Fluorescence polarisation rises when a labelled molecule tumbles more slowly, as on binding a larger partner.)

Data set [6] deals with T1, Apoptosis regulator Bcl-2. Nature of the data set: Binding affinity to recombinant Bcl-2 (unknown origin) expressed in Escherichia coli BL21 (DE3) cells assessed as dissociation constant by MST analysis.
For data set [7], the target named is T1, Apoptosis regulator Bcl-2. Kind of data set: Inhibition of Flu-BakBH3 binding to recombinant GST-tagged Bcl-2 (unknown origin) incubated for 30 mins by competitive fluorescence polarization assay.
Data set [8] addresses T2, Bcl-2-like protein 1. Nature of the data set: Binding affinity to Bcl-xL (unknown origin) assessed as inhibition constant.
Data set [9] has as its target T1, Apoptosis regulator Bcl-2. Kind of data set: Binding affinity to Bcl-2 (unknown origin) assessed as inhibition constant.
The target of data set [10] is T3, Induced myeloid leukemia cell differentiation protein Mcl-1 (Homo sapiens, UniProt Q07820). Nature of the data set: Binding affinity to Mcl-1 (unknown origin) assessed as inhibition constant.
Data set [11] has as its target T3, Induced myeloid leukemia cell differentiation protein Mcl-1. Nature of the data set: Binding affinity to Mcl-1 (unknown origin) assessed as inhibition constant by TR-FRET assay.
The nature of data set [12]: Half-life in human. The data set is classed as ADME.
The subject of a further data set is RS4-11. Kind of data set: Induction of apoptosis in human RS4-11 cells. It counts as functional, cell-based.
The next data set deals with T4, Bcl-2-like protein 2 (Homo sapiens, UniProt Q92843).
T4 sequence (Q92843 whole entry): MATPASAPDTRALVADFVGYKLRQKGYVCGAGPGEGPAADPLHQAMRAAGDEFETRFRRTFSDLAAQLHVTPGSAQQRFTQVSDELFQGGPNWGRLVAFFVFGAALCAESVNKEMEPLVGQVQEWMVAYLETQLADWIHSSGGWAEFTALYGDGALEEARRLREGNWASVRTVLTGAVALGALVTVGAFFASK
Kind of data set: Binding affinity to Bcl-w (unknown origin) assessed as inhibition constant by competitive fluorescence polarization assay.

Data set [13] deals with T1, Apoptosis regulator Bcl-2. Nature of the data set: Binding affinity to recombinant His-tagged human Bcl-2 expressed in Escherichia coli assessed as inhibition constant by SPR analysis.

Where a SMILES comes first, the peptide text is derived from it.

T1 sequence (P10415 whole entry): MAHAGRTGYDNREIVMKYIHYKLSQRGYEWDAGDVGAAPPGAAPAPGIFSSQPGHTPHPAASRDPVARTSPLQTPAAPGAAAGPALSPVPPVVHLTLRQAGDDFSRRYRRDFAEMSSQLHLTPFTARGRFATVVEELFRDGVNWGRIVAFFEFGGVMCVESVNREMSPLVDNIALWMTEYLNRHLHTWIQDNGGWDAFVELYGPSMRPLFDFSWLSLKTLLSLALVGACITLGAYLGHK
T2 sequence (Q07817 whole entry): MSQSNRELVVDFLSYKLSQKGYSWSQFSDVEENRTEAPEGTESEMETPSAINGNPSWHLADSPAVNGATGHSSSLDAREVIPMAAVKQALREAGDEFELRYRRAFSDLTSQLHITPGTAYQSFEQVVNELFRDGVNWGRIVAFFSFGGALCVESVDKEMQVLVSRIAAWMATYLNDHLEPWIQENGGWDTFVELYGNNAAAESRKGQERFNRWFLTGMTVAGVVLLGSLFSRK
T3 sequence (Q07820 whole entry): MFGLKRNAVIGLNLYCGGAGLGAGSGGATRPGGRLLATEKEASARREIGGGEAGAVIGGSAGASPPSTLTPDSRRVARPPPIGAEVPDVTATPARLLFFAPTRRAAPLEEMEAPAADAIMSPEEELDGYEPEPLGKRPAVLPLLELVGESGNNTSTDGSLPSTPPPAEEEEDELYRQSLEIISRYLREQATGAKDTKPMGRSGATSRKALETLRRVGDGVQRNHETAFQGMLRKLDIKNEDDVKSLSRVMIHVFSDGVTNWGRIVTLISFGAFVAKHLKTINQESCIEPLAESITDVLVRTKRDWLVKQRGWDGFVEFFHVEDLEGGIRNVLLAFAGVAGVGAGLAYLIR

The term IC50 denotes the concentration at which inhibition is half-maximal. Turning to `CC(C)(C)c1ccc(C(=O)NCCN2C(=O)c3cccc4c(Sc5ccc(Br)cc5)ccc(c34)C2=O)cc1`, the IC50 was found to be 7900 nM in data set [1] and 2110 nM in [2]. Broadly, the Ki is the equilibrium dissociation constant of an inhibitor or competing ligand from its target. In the case of `CCCCCCCCCCCCCCCC(=O)N[C@H](C(=O)N[C@@H](C)C(=O)N[C@@H](CCC(N)=O)C(=O)N[C@@H](CCC(=O)O)C(=O)N[C@@H](CCCNC(=N)N)C(=O)N[C@@H](CCCNC(=N)N)C(=O)N[C@H](C(=O)NCC(=O)N[C@@H](CC(=O)O)C(=O)N[C@@H](CCC(=O)O)C(=O)N[C@@H](Cc1ccccc1)C(N)=O)[C@@H](C)CC)[C@@H](C)CC` (HELM PEPTIDE1{[CCCCCCCCCCCCCCCC(=O)[*:2]].I.A.Q.E.R.R.I.G.D.E.F.[am]}$$$$V2.0), the Ki on Bcl-2-like protein 1 [3] is 22.2 nM. Regarding `O=[N+]([O-])c1ccccc1Nc1nnc(-c2c[nH]c3ccccc23)o1`, the IC50 in [4] came out at 4270 nM. As a reminder, the EC50 is the concentration at which the effect is half-maximal. The low end stands for greater potency, the high end for weaker potency. `Cc1cc2c(C(C)C)c(O)c(O)cc2c(O)c1-c1c(C)cc2c(C(C)C)c(O)c(O)cc2c1O` [APOGOSSYPOL] registered an EC50 in [5] of 2800 nM. In general, Kd refers to the constant that tells how readily two partners part at equilibrium. As to `COc1c(O)cc(O)c2c(=O)cc(-c3ccc(O)c(O)c3)oc12`, the Kd in [6] was determined as 36100 nM. For the compound `CCOC(=O)C1=C(N)Oc2ccc(Br)cc2C1C(C#N)C(=O)OCC` (stereo not given), in data set [7], the concentration for half-maximal inhibition (IC50) amounted to 9000 nM.

Turning to `CC1=C(C2=C(C)C(=O)C3C(C(C)C)=C(O)C(O)=CC3C2=O)C(=O)c2cc(O)c(O)c(C(C)C)c2C1=O` (stereo not given), the values for the Ki (on Bcl-2-like protein 1 [8]; in data set [9]; in [10]) were 660 nM, 35 nM and 25 nM, respectively. As a reminder, the half-life is the time in which the quantity being followed falls by half. Lower therefore signals rapid decline. Turning to `CC1(C)CCC(CN2CCN(c3ccc(C(=O)NS(=O)(=O)c4ccc(NCC5CCOCC5)c([N+](=O)[O-])c4)c(Oc4cnc5[nH]ccc5c4)c3)CC2)=C(c2ccc(Cl)cc2)C1` [VENETOCLAX], in data set [11], the Ki was above 444 nM. The same compound had a half-life in [12] of 26 h. Further, in the data set with RS4-11, the EC50 was found to be 3 nM. Take `CC1(C)CCC(c2ccc(Cl)cc2)=C(CN2CCN(c3ccc(C(=O)NS(=O)(=O)c4ccc(N[C@H](CCN5CCOCC5)CSc5ccccc5)c(S(=O)(=O)C(F)(F)F)c4)cc3)CC2)C1` [NAVITOCLAX]: the Ki on Bcl-2-like protein 2 was at most 1 nM.

Consider Ac-IAQERRIGDEF-NH2, for which the Ki in [13] worked out at 9.48 nM.
